The values below come from the Kinase Knowledgebase extract (Sharma et al. 2016).

Structures are written as SMILES. Values joined by “and” are separate entries in the source; they are usually repeats but may differ in a detail not shown here. Identical values can stand only once.

The term IC50 denotes the concentration that inhibits the measured activity by half.

In the first assay the target is EGFR (murine) (UniProt P00533). The conditions noted are these: nih3t3/c7.
Chain of EGFR (murine) (P00533 whole entry, looked up): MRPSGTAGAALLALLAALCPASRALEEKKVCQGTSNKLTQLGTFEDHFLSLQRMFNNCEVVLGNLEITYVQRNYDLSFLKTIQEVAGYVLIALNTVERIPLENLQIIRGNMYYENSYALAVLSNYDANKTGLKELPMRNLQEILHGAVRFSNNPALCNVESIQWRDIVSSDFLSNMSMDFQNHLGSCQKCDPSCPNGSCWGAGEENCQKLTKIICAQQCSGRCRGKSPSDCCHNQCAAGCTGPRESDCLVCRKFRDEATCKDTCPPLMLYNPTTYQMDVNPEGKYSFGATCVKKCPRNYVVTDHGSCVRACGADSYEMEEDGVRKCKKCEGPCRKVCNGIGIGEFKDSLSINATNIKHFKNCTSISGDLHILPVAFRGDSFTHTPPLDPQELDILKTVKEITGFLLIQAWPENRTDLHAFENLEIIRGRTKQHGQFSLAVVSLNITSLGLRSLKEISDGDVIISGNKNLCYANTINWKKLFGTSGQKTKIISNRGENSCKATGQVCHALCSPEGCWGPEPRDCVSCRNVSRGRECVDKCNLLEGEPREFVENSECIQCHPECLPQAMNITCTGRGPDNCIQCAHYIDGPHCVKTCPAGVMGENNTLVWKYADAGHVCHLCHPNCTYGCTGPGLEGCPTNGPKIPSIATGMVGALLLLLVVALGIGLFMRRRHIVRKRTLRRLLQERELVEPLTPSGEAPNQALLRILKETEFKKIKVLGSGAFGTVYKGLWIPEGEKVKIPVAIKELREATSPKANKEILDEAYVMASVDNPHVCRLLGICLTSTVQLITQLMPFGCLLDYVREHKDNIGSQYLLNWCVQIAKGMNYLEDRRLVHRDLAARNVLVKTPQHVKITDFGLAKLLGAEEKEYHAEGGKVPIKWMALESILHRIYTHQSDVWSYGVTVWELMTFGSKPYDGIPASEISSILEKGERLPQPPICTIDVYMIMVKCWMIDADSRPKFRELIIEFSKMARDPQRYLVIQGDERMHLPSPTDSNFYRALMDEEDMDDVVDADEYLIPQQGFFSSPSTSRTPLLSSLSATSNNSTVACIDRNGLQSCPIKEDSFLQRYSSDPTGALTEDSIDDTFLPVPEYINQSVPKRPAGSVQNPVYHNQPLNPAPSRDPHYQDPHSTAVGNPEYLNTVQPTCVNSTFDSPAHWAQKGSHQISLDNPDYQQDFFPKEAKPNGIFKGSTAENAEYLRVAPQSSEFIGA
For `N#CC(C#N)=CNNc1cccc(Cl)c1`, the IC50 was greater than 50 µM.

Take `Clc1cccc(Nc2ncnc3ccccc23)c1`: the 50% inhibitory concentration (IC50) is 0.16 µM and 0.2 µM.

`CC(=O)ON=C(Cl)C1=C[NH+]([O-])c2cc(Cl)ccc2[NH+]1[O-]` (stereo not drawn) came in with a concentration for half-maximal inhibition (IC50) greater than 50 µM.

For the molecule `CC(C)(C)c1cc(/C=C(\C#N)S(=O)(=O)/C(C#N)=C/c2cc(C(C)(C)C)c(O)c(C(C)(C)C)c2)cc(C(C)(C)C)c1O`, the IC50 was greater than 100 µM.

`CC(=O)C1=C(c2ccccc2)[NH+]([O-])c2ccccc2[NH+]1[O-]` (stereo not drawn) had an IC50 greater than 100 µM.

Consider `Cc1ccc2ncnc(Nc3cccc(Cl)c3)c2c1`, for which the IC50 turned out to be 0.06 µM.

In the case of `COC(=O)c1ccc(NCc2cc(O)ccc2O)cc1`, the concentration for half-maximal inhibition (IC50) was 43 µM.

The molecule `N#C/C(=C\c1cc(O)c(O)c(Br)c1)C(=O)NCCCNC(=O)/C(C#N)=C/c1cc(O)c(O)c(Br)c1` came in with an IC50 of 31.5 µM.

`CC(C)(C)c1cc(/C=C(\C#N)c2c(C#N)c(N)nn2-c2ccccc2)cc(C(C)(C)C)c1O` gave an IC50 of 25 µM.

`Cc1ccc2ncnc(Nc3cccc(C(F)(F)F)c3)c2c1`: the IC50 turned out to be 0.86 µM.

`Cc1cc2nc(CSCCCSCc3nc4cc(C)c(C)cc4nc3-c3ccccc3)c(-c3ccccc3)nc2cc1C` showed an IC50 of 12.5 µM.

In the next assay the target is EGFR (human) (UniProt P00533). The conditions noted are these: a431.
Chain of EGFR (human) (P00533 whole entry, looked up): as above
The molecule `Clc1cccc(Nc2ncnc3ccccc23)c1` had an IC50 of 20 µM.

Consider `Cc1ccc2ncnc(Nc3cccc(Cl)c3)c2c1`, for which the IC50 was 10 µM and 20 µM.
